The record followed here is patent publication US9975907B2, “Pyrimidinones as PI3K inhibitors” (Incyte Corporation, priority 2009, dated 2018).

Counter-ions that a name gives are not always drawn.

PI3Kδ (p110δ/p85α), sequence (O00329 whole entry, species assumed): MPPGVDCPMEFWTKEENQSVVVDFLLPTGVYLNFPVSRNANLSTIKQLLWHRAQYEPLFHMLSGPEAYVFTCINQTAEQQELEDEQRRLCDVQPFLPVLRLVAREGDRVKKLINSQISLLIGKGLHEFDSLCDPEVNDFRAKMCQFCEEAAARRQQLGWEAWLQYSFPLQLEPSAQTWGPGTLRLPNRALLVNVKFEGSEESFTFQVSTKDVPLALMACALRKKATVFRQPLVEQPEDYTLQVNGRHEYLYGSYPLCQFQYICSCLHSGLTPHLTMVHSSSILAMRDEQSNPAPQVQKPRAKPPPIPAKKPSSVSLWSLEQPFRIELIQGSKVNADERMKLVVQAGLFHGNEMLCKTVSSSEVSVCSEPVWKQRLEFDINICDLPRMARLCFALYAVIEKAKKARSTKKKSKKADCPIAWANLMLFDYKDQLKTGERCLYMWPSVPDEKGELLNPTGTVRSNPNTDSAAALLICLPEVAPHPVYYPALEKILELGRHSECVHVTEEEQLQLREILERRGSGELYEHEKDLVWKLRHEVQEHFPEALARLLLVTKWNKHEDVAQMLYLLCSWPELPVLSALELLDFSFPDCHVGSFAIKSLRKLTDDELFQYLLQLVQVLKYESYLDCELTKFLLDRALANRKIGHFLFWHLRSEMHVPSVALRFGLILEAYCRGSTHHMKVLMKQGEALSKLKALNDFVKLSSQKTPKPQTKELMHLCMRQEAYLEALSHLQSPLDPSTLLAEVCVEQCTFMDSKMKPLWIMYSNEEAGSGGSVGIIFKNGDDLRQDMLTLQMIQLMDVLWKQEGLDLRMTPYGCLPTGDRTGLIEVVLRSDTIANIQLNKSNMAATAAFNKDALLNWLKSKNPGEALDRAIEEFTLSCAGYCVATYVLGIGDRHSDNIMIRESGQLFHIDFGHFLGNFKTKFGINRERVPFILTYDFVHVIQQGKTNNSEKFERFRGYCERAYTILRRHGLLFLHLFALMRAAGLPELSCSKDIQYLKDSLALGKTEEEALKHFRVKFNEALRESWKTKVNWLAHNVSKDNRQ
PI3Kδ (p110δ/p85α), sequence (P27986 whole entry partner, species assumed): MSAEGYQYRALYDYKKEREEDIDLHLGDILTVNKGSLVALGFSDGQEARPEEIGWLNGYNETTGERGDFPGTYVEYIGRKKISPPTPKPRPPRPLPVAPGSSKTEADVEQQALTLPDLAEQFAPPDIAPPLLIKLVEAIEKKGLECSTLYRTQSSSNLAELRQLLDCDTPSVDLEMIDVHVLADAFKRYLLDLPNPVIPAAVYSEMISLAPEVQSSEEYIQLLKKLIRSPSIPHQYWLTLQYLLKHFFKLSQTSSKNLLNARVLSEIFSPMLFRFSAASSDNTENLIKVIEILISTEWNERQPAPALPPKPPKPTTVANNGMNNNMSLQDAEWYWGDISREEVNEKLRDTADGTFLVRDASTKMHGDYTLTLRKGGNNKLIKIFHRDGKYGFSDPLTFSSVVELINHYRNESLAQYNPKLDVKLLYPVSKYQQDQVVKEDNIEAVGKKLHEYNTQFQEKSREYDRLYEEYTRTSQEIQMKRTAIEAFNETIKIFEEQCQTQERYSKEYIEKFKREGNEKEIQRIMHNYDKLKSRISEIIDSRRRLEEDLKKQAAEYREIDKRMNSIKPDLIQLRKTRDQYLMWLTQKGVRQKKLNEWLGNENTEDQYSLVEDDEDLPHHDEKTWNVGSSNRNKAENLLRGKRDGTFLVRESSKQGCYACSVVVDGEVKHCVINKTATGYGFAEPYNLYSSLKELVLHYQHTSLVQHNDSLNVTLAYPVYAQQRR

The test has as its target PI3Kδ (p110δ/p85α) (Homo sapiens (Human), UniProt O00329). As to the kind of experiment: PI3Kδ Scintillation Proximity Assay (Assay A3). Format: biochemical. The settings on record: column b, Assay A3 (SPA), 20 μM ATP. The source says:
[γ-^33P]ATP (10 mCi/mL) was purchased from Perkin-Elmer (Waltham, Mass.). Lipid kinase substrate, D-myo-Phosphatidylinositol 4,5-bisphosphate (PtdIns(4,5)P2)D (+)-sn-1,2-di-O-octanoylglyceryl, 3-O-phospho linked (PIP2), CAS 204858-53-7, was purchased from Echelon Biosciences (Salt Lake City, Utah). PI3Kδ (p110δ/p85α) was purchased from Millipore (Bedford, Mass.). ATP, MgCl2, DTT, EDTA, MOPS and CHAPS were purchased from Sigma-Aldrich (St. Louis, Mo.). Wheat Germ Agglutinin (WGA) YSi SPA Scintillation Beads was purchased from GE healthcare life sciences (Piscataway, N.J.).
The kinase reaction was conducted in polystyrene 384-well matrix white plate from Thermo Fisher Scientific in a final volume of 25 μL. Inhibitors were first diluted serially in DMSO and added to the plate wells before the addition of other reaction components. The final concentration of DMSO in the assay was 0.5%. The PI3K assays were carried out at room temperature in 20 mM MOPS, pH 6.7, 10 mM MgCl2, 5 mM DTT and CHAPS 0.03%. Reactions were initiated by the addition of ATP, the final reaction mixture consisted of 20 μM PIP2, 20 μM ATP, 0.2 μCi [γ-^33P] ATP, 4 nM PI3Kδ. Reactions were incubated for 210 min and terminated by the addition of 40 μL SPA beads suspended in quench buffer: 150 mM potassium phosphate pH 8.0, 20% glycerol. 25 mM EDTA, 400 μM ATP. The final concentration of SPA beads was 1.0 mg/mL. After the plate sealing, plates were shaken overnight at room temperature and centrifuged at 1800 rpm for 10 minutes, the radioactivity of the product was determined by scintillation counting on Topcount (Perkin-Elmer). IC50 determination was performed by fitting the curve of percent control activity versus the log of the inhibitor concentration using the GraphPad Prism 3.0 software.
(SPA uses beads or plates that emit light when radiolabelled molecules are held near them.)
Regarding `Cc1ccccc1-c1c(C(C)Nc2ncnc3[nH]cnc23)nc2cccc(C)n2c1=O` (stereo not drawn) [Example 63, 6-Methyl-3-(2-methylphenyl)-2-[1-(9H-purin-6-ylamino)ethyl]-4H-pyrido[1,2-a]pyrimidin-4-one trifluoroacetic acid salt], the IC50 (as a rule, the concentration that inhibits the measured activity by half) lay within 100 to 500 nM.

Turning to `Cc1cccc2nc(C(C)Nc3ncnc4[nH]cnc34)c(-c3cc(F)cc(F)c3)c(=O)n12` (stereo not drawn) [Example 69, 3-(3,5-Difluorophenyl)-6-methyl-2-[1-(9H-purin-6-ylamino)ethyl]-4H-pyrido[1,2-a]pyrimidin-4-one trifluoroacetic acid salt], the IC50 fell in the range of 100 to 500 nM.

Compound `Cc1cccc2nc(C(C)Nc3nc(N)nc4[nH]cnc34)c(-c3ccccc3F)c(=O)n12` (stereo not drawn) [Example 60, 2-{1-[(2-Amino-9#-purin-6-yl)amino]ethyl}-3-(2-fluorophenyl)-6-methyl-4H-pyrido[1,2-a]pyrimidin-4-one trifluoroacetic acid salt] showed a half-maximal inhibitory concentration (IC50) of less than 50 nM.

`Cc1cccc2nc(C(C)Nc3ncnc4[nH]cnc34)c(-c3ccccc3)c(=O)n12` (stereo not drawn) [Example 49, 6-Methyl-3-phenyl-2-[1-(9H-purin-6-ylamino)ethyl]-4H-pyrido[1,2-a]pyrimidin-4-one trifluoroacetic acid salt] returned a half-maximal inhibitory concentration (IC50) of less than 50 nM.

On to `Cc1cccc2nc(C(C)Nc3ncnc4[nH]cnc34)c(-c3ccc(C#N)cc3)c(=O)n12` (stereo not drawn) [Example 61, 4-{6-Methyl-4-oxo-2-[1-(9H-purin-6-ylamino)ethyl]-4H-pyrido[1,2-a]pyrimidin-3-yl}benzonitrile trifluoroacetic acid salt], for which the IC50 is greater than 500 nM.

Take `Cc1cccc(-c2c(C(C)Nc3ncnc4[nH]cnc34)nc3cccc(C)n3c2=O)c1` (stereo not drawn) [Example 51, 6-Methyl-3-(3-methylphenyl)-2-[1-(9H-purin-6-ylamino)ethyl]-4H-pyrido[1,2-a]pyrimidin-4-one trifluoroacetic acid salt]: the IC50 fell in the range of 100 to 500 nM.

`Cc1cccc(-c2c(C(C)Nc3nc(N)nc4[nH]cnc34)nc3cccc(C)n3c2=O)c1` (stereo not drawn) [Example 52, 2-{1-[(2-Amino-9H-purin-6-yl)amino]ethyl}-6-methyl-3-(3-methylphenyl)-4H-pyrido[1,2-a]pyrimidin-4-one trifluoroacetic acid salt] returned an IC50 of less than 50 nM.

As for `Cc1cc(-c2c(C(C)Nc3nc(N)nc4[nH]cnc34)nc3cccc(C)n3c2=O)cnc1Cl` (stereo not drawn) [Example 82, 2-{1-[(2-Amino-9H-purin-6-yl)amino]ethyl}-3-(6-chloro-5-methylpyridin-3-yl)-6-methyl-4H-pyrido[1,2-a]pyrimidin-4-one trifluoroacetic acid salt], the IC50 is greater than 500 nM.

`CC(Nc1ncnc2[nH]cnc12)c1nc2scc(C(F)(F)F)n2c(=O)c1-c1cccc(F)c1` (stereo not drawn) [Example 48, 6-(3-Fluorophenyl)-7-[1-(9H-purin-6-ylamino)ethyl]-3-(trifluoromethyl)-5H-[1,3]thiazolo[3,2-a]pyrimidin-5-one] returned an IC50 of 50 to 100 nM.

Turning to `CC(Nc1ncnc2[nH]cnc12)c1nc2sccn2c(=O)c1-c1ccccc1` (stereo not drawn) [Example 29, 6-phenyl-7-[1-(9H-purin-6-ylamino)ethyl]-5H-[1,3]thiazolo[3,2-a]pyrimidin-5-one], the IC50 is greater than 500 nM.

`Cc1cccc2nc(C(C)Nc3ncnc4[nH]cnc34)c(-c3ccccc3Cl)c(=O)n12` (stereo not drawn) [Example 57, 3-(2-Chlorophenyl)-6-methyl-2-[1-(9H-purin-6-ylamino)ethyl]-4H-pyrido[1,2-a]pyrimidin-4-one trifluoroacetic acid salt] yielded an IC50 of less than 50 nM.

For the compound `Cc1csc2nc(C(C)Nc3nc(N)nc4[nH]cnc34)c(-c3cncc(F)c3)c(=O)n12` (stereo not drawn) [Example 38, 7-{1-[(2-amino-9H-purin-6-yl)amino]ethyl}-6-(5-fluoropyridin-3-yl)-3-methyl-5H-[1,3]thiazolo[3,2-a]pyrimidin-5-one trifluoroacetic acid salt], the IC50 was 50 to 100 nM.

With `Cc1cccc2nc(C(C)Nc3nc(N)nc4[nH]cnc34)c(-c3cccc(C#N)c3)c(=O)n12` (stereo not drawn) [Example 84, 3-(2-{1-[(2-Amino-9H-purin-6-yl)amino]ethyl}-6-methyl-4-oxo-4H-pyrido[1,2-a]pyrimidin-3-yl)benzonitrile trifluoroacetic acid salt], the IC50 is 50 to 100 nM.

The compound `Cc1cccc2nc(C(C)Nc3ncnc4[nH]cnc34)c(-c3ccccc3F)c(=O)n12` (stereo not drawn) [Example 59, 3-(2-Fluorophenyl)-6-methyl-2-[1-(9H-purin-6-ylamino)ethyl]-4H-pyrido[1,2-a]pyrimidin-4-one trifluoroacetic acid salt] displayed an IC50 of less than 50 nM.

In the case of `Cc1cccc2nc(C(C)Nc3ncnc4[nH]cnc34)c(-c3cc(F)ccc3F)c(=O)n12` (stereo not drawn) [Example 67, 3-(2,5-Difluorophenyl)-6-methyl-2-[1-(9H-purin-6-ylamino)ethyl]-4H-pyrido[1,2-a]pyrimidin-4-one trifluoroacetic acid salt], the IC50 is less than 50 nM.

With `Cc1csc2nc(C(C)Nc3nc(N)nc4[nH]cnc34)c(-c3cccc(Cl)c3)c(=O)n12` (stereo not drawn) [Example 32, 7-{1-[(2-amino-9H-purin-6-yl)amino]ethyl}-6-(3-chlorophenyl)-3-methyl-5H-[1,3]thiazolo[3,2-a]pyrimidin-5-one trifluoroacetic acid salt], the half-inhibitory concentration (IC50) is 50 to 100 nM.

As to `CC(Nc1nc(N)nc2[nH]cnc12)c1nc2sccn2c(=O)c1-c1cccc(F)c1` (stereo not drawn) [Example 26, 7-{1-[(2-amino-9H-purin-6-yl)amino]ethyl}-6-(3-fluorophenyl)-5H-[1,3]thiazolo[3,2-a]pyrimidin-5-one], the IC50 fell in the range of 100 to 500 nM.

The compound `CCc1cccc2nc(C(C)Nc3nc(N)nc4[nH]cnc34)c(-c3cc(F)cc(F)c3)c(=O)n12` (stereo not drawn) [Example 77, 2-{1-[(2-Amino-9#-purin-6-yl)amino]ethyl}-3-(3,5-difluorophenyl)-6-ethyl-4H-pyrido[1,2-a]pyrimidin-4-one trifluoroacetic acid salt] had an IC50 of 50 to 100 nM.

On to `Cc1cccc2nc(C(C)Nc3nc(N)nc4[nH]cnc34)c(-c3ccccc3Cl)c(=O)n12` (stereo not drawn) [Example 58, 2-{1-[(2-Amino-9#-purin-6-yl)amino]ethyl}-3-(2-chlorophenyl)-6-methyl-4H-pyrido[1,2-a]pyrimidin-4-one trifluoroacetic acid salt], for which the IC50 was less than 50 nM.

For `Cc1csc2nc(C(C)Nc3ncnc4[nH]cnc34)c(-c3cscn3)c(=O)n12` (stereo not drawn) [Example 21, 3-methyl-7-[1-(9H-purin-6-ylamino)ethyl]-6-(1,3-thiazol-4-yl)-5H-[1,3]thiazolo[3,2-a]pyrimidin-5-one trifluoroacetic acid salt], the IC50 was less than 50 nM.

In turn, `Cc1csc2nc(C(C)Nc3ncnc4[nH]cnc34)c(-c3ccc(F)cc3)c(=O)n12` (stereo not drawn) [Example 22, 6-(4-fluorophenyl)-3-methyl-7-[1-(9H-purin-6-ylamino)ethyl]-5H-[1,3]thiazolo[3,2-a]pyrimidin-5-one trifluoroacetic acid salt] returned an IC50 of 50 to 100 nM.

With `CC(Nc1nc(N)nc2[nH]cnc12)c1nc2sccn2c(=O)c1-c1ccccc1` (stereo not drawn) [Example 27, 7-{1-[(2-amino-9H-purin-6-yl)amino]ethyl}-6-phenyl-5H-[1,3]thiazolo[3,2-a]pyrimidin-5-one], the IC50 fell in the range of 100 to 500 nM.

`Cc1csc2nc(C(C)Nc3ncnc4[nH]cnc34)c(-c3cccc(F)c3F)c(=O)n12` (stereo not drawn) [Example 41, 6-(2,3-difluorophenyl)-3-methyl-7-[1-(9H-purin-6-ylamino)ethyl]-5H-[1,3]thiazolo[3,2-a]pyrimidin-5-one trifluoroacetic acid salt] returned an IC50 of 50 to 100 nM.

On to `Cc1cccc2nc(C(C)Nc3ncnc4[nH]cnc34)c(-c3cccc(C#N)c3)c(=O)n12` (stereo not drawn) [Example 83, 3-{6-Methyl-4-oxo-2-[1-(9H-purin-6-ylamino)ethyl]-4H-pyrido[1,2-a]pyrimidin-3-yl}benzonitrile trifluoroacetic acid salt], for which the IC50 was 100 to 500 nM.

`Cc1csc2nc([C@H](C)Nc3nc(O)nc4[nH]cnc34)c(-c3cccc(F)c3)c(=O)n12` [Example 47, 6-(3-Fluorophenyl)-7-{(1S)-1-[(2-hydroxy-9H-purin-6-yl)amino]ethyl}-3-methyl-5H-[1,3]thiazolo[3,2-a]pyrimidin-5-one]: the IC50 lay within 100 to 500 nM.

Compound `CC(Nc1ncnc2[nH]cnc12)c1nc2sccn2c(=O)c1-c1cccc(F)c1` (stereo not drawn) [Example 28, 6-(3-fluorophenyl)-7-[1-(9H-purin-6-ylamino)ethyl]-5H-[1,3]thiazolo[3,2-a]pyrimidin-5-one] returned an IC50 greater than 500 nM.

Compound `Cc1csc2nc(C(C)Nc3ncnc4[nH]cnc34)c(-c3cc(F)ccc3F)c(=O)n12` (stereo not drawn) [Example 45, 6-(2,5-difluorophenyl)-3-methyl-7-[1-(9H-purin-6-ylamino)ethyl]-5H-[1,3]thiazolo[3,2-a]pyrimidin-5-one trifluoroacetic acid salt] had an IC50 of less than 50 nM.
